According to patent US10280171B2, “Heterocyclic inhibitors of PTPN11” (priority 2016, dated 2019):

These molecules were tested on Phospho-ERK levels in KYSE-520 cells (assay: pERK AlphaScreen Protocol). Settings: Homo sapiens, KYSE-520, 2 h, KYSE-520 cells, 2 hr compound incubation, phospho-ERK1/2 AlphaScreen SureFire; read-out: PERK Avg IC50.
Type: cell-based
Experimental: KYSE-520 cells (10 k cells/well) were grown in 384-well plate in 20 uL of medium (RPMI-1640, without phenol red, containing 10% FBS) at 37° C. with 5% CO2 overnight. DMSO (control) or increasing concentrations of compounds were diluted in medium, added to the 384-well plate (5 uL/well, final DMSO concentration of 1%), and cells were then incubated with compounds for 2 hr. Phospho-ERK levels were measured using phospho-ERK1/2 AlphaScreen SureFire (PerkinElmer, TGRESB10K) following manufacturer's recommendations. Dose-response curves were analyzed using IC50 regression curve fitting (GeneData Screener). Curves were normalized to a high control without inhibitor (DMSO only), and low control (1 μM selumetinib).

Q: `NC1(CO)CCN(c2cnc3c(-c4cccc(F)c4Cl)n[nH]c3n2)CC1` [Example 62, (4-amino-1-(3-(2-chloro-3-fluoro-phenyl)-1H-pyrazolo[3,4-b]-pyrazin-6-yl)-piperidin-4-yl)-methanol] was tested. Which IC50 did it give?
A: 310 nM

Q: `Nc1nccc(-c2n[nH]c3nc(N4CCC5(CCC5N)CC4)cnc23)c1Cl` (centres unmarked) [Example 115, 7-(3-(2-Amino-3-chloropyridin-4-yl)-1H-pyrazolo[3,4-b]pyrazin-6-yl)-7-azaspiro[3.5]nonan-1-amine] was tested. Which IC50 did it give?
A: 427 nM

Q: How did the IC50 turn out when `N[C@@H]1COCC12CCN(c1cnc3c(-c4cccc(F)c4Cl)n[nH]c3n1)CC2` [Example 42, (S)-8-(3-(2-chloro-3-fluorophenyl)-1H-pyrazolo[3,4-b]-pyrazin-6-yl)-2-oxa-8-azaspiro[4.5]-decan-4-amine] was run?
A: 63 nM

Q: For `N[C@@H]1CCCC12CCN(c1cnc3c(-c4cccnc4Cl)n[nH]c3n1)CC2` [Example 53, (R)-8-(3-(2-chloro-pyridin-3-yl)-1H-pyrazolo[3,4-b]-pyrazin-6-yl)-8-aza-spiro[4.5]decan-1-amine], which IC50 is on record?
A: 224 nM

Q: With `CC1(N)CCN(c2cnc3c(-c4c(F)cccc4Cl)n[nH]c3n2)CC1` [Example 32, 1-(3-(2-chloro-6-fluorophenyl)-1H-pyrazolo[3,4-b]-pyrazin-6-yl)-4-methylpiperidin-4-amine] as the molecule, how does the IC50 read?
A: 284 nM

Q: With `NC1(CO)CCN(c2cnc3c(-c4cccnc4Cl)n[nH]c3n2)CC1` [Example 59, (4-amino-1-(3-(2-chloropyridin-3-yl)-1H-pyrazolo[3,4-b]pyrazin-6-yl)-piperidin-4-yl)-methanol] as the molecule, how does the IC50 read?
A: 1040 nM

Q: With `N[C@@H]1CCCC12CCN(c1cnc3c(-c4ccc(Cl)c(Cl)c4)n[nH]c3n1)CC2` [Example 46, (R)-8-(3-(3,4-dichloro-phenyl)-1H-pyrazolo[3,4-b]-pyrazin-6-yl)-8-aza-spiro[4.5]decan-1-amine] as the molecule, how does the IC50 read?
A: 666 nM

Q: How did the IC50 turn out when `NCC1(O)CCN(c2cnc3c(-c4c(F)cccc4Cl)n[nH]c3n2)CC1` [Example 63, 4-(aminomethyl)-1-(3-(2-chloro-6-fluorophenyl)-1H-pyrazolo [3,4-b]-pyrazin-6-yl)-piperidin-4-ol] was run?
A: 687 nM

Q: For `N[C@@H]1COCC12CCN(c1cnc3c(-c4cccc(Cl)c4Cl)n[nH]c3n1)CC2` [Example 38, (S)-8-(3-(2,3-Dichlorophenyl)-1H-pyrazolo[3,4-b]pyrazin-6-yl)-2-oxa-8-azaspiro[4.5]-decan-4-amine], which IC50 is on record?
A: 40 nM

Q: With `Nc1nccc(-c2n[nH]c3nc(N4CCC5(CCC5N)CC4)cnc23)c1Cl` (single isomer, unassigned; enantiomer 1) [Example 136a, 7-[3-(2-amino-3-chloropyridine-4-yl)-1H-pyrazolo[3,4-b]-pyrazin-6-yl]-7-aza-spiro[3.5]nonan-1-amine, enantiomer 1] as the molecule, how does the IC50 read?
A: 2270 nM

Q: With `CNc1nccc(-c2n[nH]c3nc(N4CCC(C)(N)CC4)cnc23)c1Cl` [Example 112, 4-(6-(4-Amino-4-methylpiperidin-1-yl)-1H-pyrazolo[3,4-b]pyrazin-3-yl)-3-chloro-N-methylpyridin-2-amine] as the molecule, how does the IC50 read?
A: 58 nM

Same assay, conditions: KYSE-520 cells, 2 hr compound incubation, phospho-ERK1/2 AlphaScreen SureFire; read-out: PERK Avg IC50

Q: Which IC50 does the source give for `Nc1nccc(-c2n[nH]c3nc(N4CCC5(CCC5N)CC4)cnc23)c1Cl` (single isomer, unassigned; enantiomer 2) [Example 136b, 7-[3-(2-amino-3-chloropyridin-4-yl)-1H-pyrazolo-[3,4-b]-pyrazin-6-yl]-7-aza-spiro[3.5]nonan-1-amine, enantiomer 2] here?
A: 1960 nM

What follows are molecules tested against PTPN11-E76K mutant enzyme (Homo sapiens (Human), UniProt Q06124, E76K) (assay: PTPN11 Enzymatic Assay (DiFMUP phosphatase activity)). Settings: full length PTPN11-E76K mutant enzyme 250 pM, DiFMUP 50 μM, 30 min preincubation; read-out: PTPN11-E76K Avg IC50.
Type: biochemical
Experimental: Reaction was initiated by addition of DiFMUP (50 μM) at room temperature in 384-well black plate with a final reaction volume of 20 uL in assay buffer. […] Dose-response curves were analyzed using IC50 regression curve fitting (GeneData Screener). Curves were normalized to a high controls without inhibitor, and low controls without enzyme.

Chain of PTPN11-E76K mutant enzyme (Q06124 whole entry E76K): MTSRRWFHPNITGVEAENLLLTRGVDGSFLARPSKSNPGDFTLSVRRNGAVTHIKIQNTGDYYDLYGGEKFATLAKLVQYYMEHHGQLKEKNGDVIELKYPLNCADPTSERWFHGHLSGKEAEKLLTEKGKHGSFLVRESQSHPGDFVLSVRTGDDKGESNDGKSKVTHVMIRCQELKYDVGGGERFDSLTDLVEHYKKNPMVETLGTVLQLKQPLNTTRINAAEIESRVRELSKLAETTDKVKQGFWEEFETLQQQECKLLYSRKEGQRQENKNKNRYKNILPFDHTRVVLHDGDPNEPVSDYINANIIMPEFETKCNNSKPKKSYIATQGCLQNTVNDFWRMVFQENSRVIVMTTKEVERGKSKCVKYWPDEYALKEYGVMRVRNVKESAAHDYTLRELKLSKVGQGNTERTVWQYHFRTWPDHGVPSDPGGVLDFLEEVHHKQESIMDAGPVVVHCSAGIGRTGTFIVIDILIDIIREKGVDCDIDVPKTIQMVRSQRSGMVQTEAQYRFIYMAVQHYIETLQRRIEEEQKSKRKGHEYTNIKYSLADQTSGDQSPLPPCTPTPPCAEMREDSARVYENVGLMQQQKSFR

Q: Which IC50 does the source give for `Cc1c(-c2n[nH]c3nc(N4CCC5(CCC[C@H]5N)CC4)cnc23)ccnc1N` [Example 122, (R)-8-(3-(2-amino-3-methylpyridin-4-yl)-1H-pyrazolo[3,4-b]pyrazin-6-yl)-8-azaspiro[4.5]decan-1-amine] here?
A: 205 nM

Q: `Cc1c(-c2n[nH]c3nc(N4CCC(C)(N)CC4)cnc23)ccnc1N` [Example 123, 4-(6-(4-amino-4-methylpiperidin-1-yl)-1H-pyrazolo[3,4-b]pyrazin-3-yl)-3-methylpyridin-2-amine] was tested. Which IC50 did it give?
A: 670 nM
